For 18 molecules, IC50 results are on record in patent US9670227B2, “Thienopyrimidine derivatives, a process for their preparation and pharmaceutical compositions containing them” (LES LABORATOIRES SERVIER, priority 2013, dated 2017).

Structures are written as SMILES. Read-outs that look alike come from different tables or passages of the source.

The test system of assay [1] is H929 multiple myeloma tumour line. Briefly: In vitro cytotoxicity, Microculture Tetrazolium Assay. Type of assay: cell-based. Particulars: H929 cells, 48 hours exposure, MTT, read-out: IC50 (μM) MTT H929. How it is done: The cytotoxicity studies were carried out on the H929 multiple myeloma tumour line.
The cells are distributed onto microplates and exposed to the test compounds for 48 hours.

Another assay addresses Mcl-1 protein (UniProtKB primary accession number: Q07820) (Homo sapiens, UniProt Q07820). Briefly: Inhibition of Mcl-1 by fluorescence polarisation, Method 1. Type of assay: binding. The conditions noted are these: fluorescence polarisation test; Method 2 values are underlined in the patent (underlining not visible here); read-out: IC50 (M) Mcl-1 FP. A digest of the protocol: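 Compounds were tested as 11-point serial dilutions at 5% final DMSO against 5 nM Mcl-1 with 1 nM fluorescein-labelled ligand in 10 mM HEPES, 150 mM NaCl, 0.05% Tween 20, pH 7.4. Relative binding potency was read by fluorescence polarisation.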
A general note: Polarisation of emitted light reports the rotation of a fluorescent probe.

Sequence of Mcl-1 protein (Q07820 whole entry): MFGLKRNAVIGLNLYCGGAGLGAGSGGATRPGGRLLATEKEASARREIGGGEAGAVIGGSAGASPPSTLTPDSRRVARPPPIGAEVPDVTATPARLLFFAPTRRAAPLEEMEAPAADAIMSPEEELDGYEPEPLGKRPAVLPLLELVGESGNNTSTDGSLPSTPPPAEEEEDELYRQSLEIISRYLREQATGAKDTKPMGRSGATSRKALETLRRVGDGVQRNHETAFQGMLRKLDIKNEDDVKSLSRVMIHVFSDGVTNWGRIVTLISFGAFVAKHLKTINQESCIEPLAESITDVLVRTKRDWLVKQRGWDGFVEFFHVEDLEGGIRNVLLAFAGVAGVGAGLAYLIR

As to `CCCCNC(=O)COc1ccccc1CC(Oc1ncnc2sc(-c3ccco3)c(-c3ccc(OCCN4CCN(C)CC4)c(Cl)c3C)c12)C(=O)O` [Example 220, (2R)-3-{2-[2-(butylamino)-2-oxoethoxy]phenyl}-2-{[(5Sa)-5-{3-chloro-2-methyl-4-[2-(4-methylpiperazin-1-yl)ethoxy]phenyl}-6-(furan-2-yl)thieno[2,3-d]pyrimidin-4-yl]oxy}propanoic acid], the IC50 is 0.277 µM in assay [1] (Homo sapiens, NCI-H929, 48 h) and 9e-09 M at Mcl-1 protein.
The matching figures for `Cc1c(-c2c(-c3ccco3)sc3ncnc(OC(Cc4ccccc4OCC(F)(F)F)C(=O)O)c23)ccc(OCCN2CCN(C)CC2)c1Cl` [Example 221, (2R)-2-{[(5Sa)-5-{3-chloro-2-methyl-4-[2-(4-methylpiperazin-1-yl)ethoxy]phenyl}-6-(furan-2-yl)thieno[2,3-d]pyrimidin-4-yl]oxy}-3-[2-(2,2,2-trifluoroethoxy)phenyl]propanoic acid]: 0.059 µM and 6.3e-09 M.
For `Cc1c(-c2c(-c3ccco3)sc3ncnc(OC(Cc4ccccc4OCc4cc(Cl)ccn4)C(=O)O)c23)ccc(OCCN2CCN(C)CC2)c1Cl` [Example 222, (2R)-2-{[(5Sa)-5-{3-chloro-2-methyl-4-[2-(4-methylpiperazin-1-yl)ethoxy]phenyl}-6-(furan-2-yl)thieno[2,3-d]pyrimidin-4-yl]oxy}-3-{2-[(4-chloropyridin-2-yl)methoxy]phenyl}propanoic acid], in that order: 0.314 µM and 7.4e-09 M.
For `COc1ccnc(COc2ccccc2CC(Oc2ncnc3sc(-c4ccco4)c(-c4ccc(OCCN5CCN(C)CC5)c(Cl)c4C)c23)C(=O)O)c1` [Example 223, (2R)-2-{[(5Sa)-5-{3-chloro-2-methyl-4-[2-(4-methylpiperazin-1-yl)ethoxy]phenyl}-6-(furan-2-yl)thieno[2,3-d]pyrimidin-4-yl]oxy}-3-{2-[(4-methoxypyridin-2-yl)methoxy]phenyl}propanoic acid], in that order: 0.346 µM and 1.4e-08 M.
Regarding `Cc1c(-c2c(-c3ccco3)sc3ncnc(O[C@H](Cc4ccccc4OCc4cc(-c5ccccc5)ncn4)C(=O)O)c23)ccc(OCCN2CCN(C)CC2)c1Cl` [Example 224, (2R)-2-{[(5Sa)-5-{3-chloro-2-methyl-4-[2-(4-methylpiperazin-1-yl)ethoxy]phenyl}-6-(furan-2-yl)thieno[2,3-d]pyrimidin-4-yl]oxy}-3-{2-[(6-phenylpyrimidin-4-yl)methoxy]phenyl}propanoic acid], the results for the IC50 (in assay [1]; on Mcl-1 protein) were 0.049 µM and 3.7e-09 M, respectively.
Take `Cc1cc(COc2ccccc2CC(Oc2ncnc3sc(-c4ccco4)c(-c4ccc(OCCN5CCN(C)CC5)c(Cl)c4C)c23)C(=O)O)n(C)n1` [Example 225, (2R)-2-{[(5Sa)-5-{3-chloro-2-methyl-4-[2-(4-methylpiperazin-1-yl)ethoxy]phenyl}-6-(furan-2-yl)thieno[2,3-d]pyrimidin-4-yl]oxy}-3-{2-[(1,3-dimethyl-1H-pyrazol-5-yl)methoxy]phenyl}propanoic acid]: the concentration for half-maximal inhibition (IC50) in assay [1] (Homo sapiens, NCI-H929, 48 h) came out at 0.105 µM; on Mcl-1 protein, 8.4e-09 M.
As for `Cc1c(-c2c(-c3ccco3)sc3ncnc(O[C@H](Cc4ccccc4OCc4cc(C5CC5)nn4C)C(=O)O)c23)ccc(OCCN2CCN(C)CC2)c1Cl` [Example 226, (2R)-2-{[(5Sa)-5-{3-chloro-2-methyl-4-[2-(4-methylpiperazin-1-yl)ethoxy]phenyl}-6-(furan-2-yl)thieno[2,3-d]pyrimidin-4-yl]oxy}-3-{2-[(3-cyclopropyl-1-methyl-1H-pyrazol-5-yl)methoxy]phenyl}propanoic acid], the 50% inhibitory concentration (IC50) in assay [1] was found to be 0.311 µM; on Mcl-1 protein it was 2.4e-08 M.
Consider `Cc1c(-c2c(-c3ccco3)sc3ncnc(OC(Cc4ccccc4OCc4cc(-c5ccccc5)nn4C)C(=O)O)c23)ccc(OCCN2CCN(C)CC2)c1Cl` [Example 227, (2R)-2-{[(5Sa)-5-{3-chloro-2-methyl-4-[2-(4-methylpiperazin-1-yl)ethoxy]phenyl}-6-(furan-2-yl)thieno[2,3-d]pyrimidin-4-yl]oxy}-3-{2-[(1-methyl-3-phenyl-1H-pyrazol-5-yl)methoxy]phenyl}propanoic acid], for which the IC50 turned out to be 0.192 µM in assay [1] (Homo sapiens, NCI-H929, 48 h) and 2e-08 M on Mcl-1 protein.
The matching figures for `Cc1c(-c2c(-c3ccco3)sc3ncnc(OC(Cc4ccccc4OCc4cc(-c5ccco5)nn4C)C(=O)O)c23)ccc(OCCN2CCN(C)CC2)c1Cl` [Example 228, (2R)-2-{[(5Sa)-5-{3-chloro-2-methyl-4-[2-(4-methylpiperazin-1-yl)ethoxy]phenyl}-6-(furan-2-yl)thieno[2,3-d]pyrimidin-4-yl]oxy}-3-(2-{[3-(furan-2-yl)-1-methyl-1H-pyrazol-5-yl]methoxy}phenyl)propanoic acid]: 0.166 µM and 2.2e-08 M.
Turning to `Cc1c(-c2c(-c3ccco3)sc3ncnc(OC(Cc4ccccc4OCC4CC4)C(=O)O)c23)ccc(OCCN2CCN(C)CC2)c1Cl` [Example 229, (2R)-2-{[(5Sa)-5-{3-chloro-2-methyl-4-[2-(4-methylpiperazin-1-yl)ethoxy]phenyl}-6-(furan-2-yl)thieno[2,3-d]pyrimidin-4-yl]oxy}-3-[2-(cyclopropylmethoxy)phenyl]propanoic acid], the half-inhibitory concentration (IC50) in assay [1] (Homo sapiens, NCI-H929, 48 h) came out at 0.134 µM; on Mcl-1 protein it was 4.5e-09 M.
The matching figures for `Cc1c(-c2c(-c3ccco3)sc3ncnc(OC(Cc4ccccc4OCc4cc5ccccc5cn4)C(=O)O)c23)ccc(OCCN2CCN(C)CC2)c1Cl` [Example 230, (2R)-2-{[(5Sa)-5-{3-chloro-2-methyl-4-[2-(4-methylpiperazin-1-yl)ethoxy]phenyl}-6-(furan-2-yl)thieno[2,3-d]pyrimidin-4-yl]oxy}-3-[2-(isoquinolin-3-ylmethoxy)phenyl]propanoic acid]: 0.312 µM and 1.2e-08 M.
The matching figures for `Cc1c(-c2c(-c3ccco3)sc3ncnc(OC(Cc4ccccc4OCc4ccc(Cl)cn4)C(=O)O)c23)ccc(OCCN2CCN(C)CC2)c1Cl` [Example 231, (2R)-2-{[(5Sa)-5-{3-chloro-2-methyl-4-[2-(4-methylpiperazin-1-yl)ethoxy]phenyl}-6-(furan-2-yl)thieno[2,3-d]pyrimidin-4-yl]oxy}-3-{2-[(5-chloropyridin-2-yl)methoxy]phenyl}propanoic acid]: 0.116 µM and 1e-08 M.
Consider `Cc1c(-c2c(-c3ccco3)sc3ncnc(OC(Cc4ccccc4OCc4ccc(F)cn4)C(=O)O)c23)ccc(OCCN2CCN(C)CC2)c1Cl` [Example 232, (2R)-2-{[(5Sa)-5-{3-chloro-2-methyl-4-[2-(4-methylpiperazin-1-yl)ethoxy]phenyl}-6-(furan-2-yl)thieno[2,3-d]pyrimidin-4-yl]oxy}-3-{2-[(5-fluoropyridin-2-yl)methoxy]phenyl}propanoic acid], for which the IC50 in assay [1] (Homo sapiens, NCI-H929, 48 h) was 0.046 µM; on Mcl-1 protein it was 9e-09 M.
For `COc1ccc(COc2ccccc2CC(Oc2ncnc3sc(-c4ccco4)c(-c4ccc(OCCN5CCN(C)CC5)c(Cl)c4C)c23)C(=O)O)nc1` [Example 233, (2R)-2-{[(5Sa)-5-{3-chloro-2-methyl-4-[2-(4-methylpiperazin-1-yl)ethoxy]phenyl}-6-(furan-2-yl)thieno[2,3-d]pyrimidin-4-yl]oxy}-3-{2-[(5-methoxypyridin-2-yl)methoxy]phenyl}propanoic acid], in that order: 0.099 µM and 3.4e-09 M.
As for `Cc1c(-c2c(-c3ccco3)sc3ncnc(OC(Cc4ccccc4OCc4ccc5ccccc5n4)C(=O)O)c23)ccc(OCCN2CCN(C)CC2)c1Cl` [Example 234, (2R)-2-{[(5Sa)-5-{3-chloro-2-methyl-4-[2-(4-methylpiperazin-1-yl)ethoxy]phenyl}-6-(furan-2-yl)thieno[2,3-d]pyrimidin-4-yl]oxy}-3-[2-(quinolin-2-ylmethoxy)phenyl]propanoic acid], the IC50 is 0.135 µM in assay [1] (Homo sapiens, NCI-H929, 48 h) and 1.1e-08 M on Mcl-1 protein.
The matching figures for `Cc1cccc(COc2ccccc2CC(Oc2ncnc3sc(-c4ccco4)c(-c4ccc(OCCN5CCN(C)CC5)c(Cl)c4C)c23)C(=O)O)n1` [Example 235, (2R)-2-{[(5Sa)-5-{3-chloro-2-methyl-4-[2-(4-methylpiperazin-1-yl)ethoxy]phenyl}-6-(furan-2-yl)thieno[2,3-d]pyrimidin-4-yl]oxy}-3-{2-[(6-methylpyridin-2-yl)methoxy]phenyl}propanoic acid]: 0.098 µM and 5.1e-09 M.
For `Cc1c(-c2c(-c3ccco3)sc3ncnc(OC(Cc4ccccc4OCc4cccc(Cl)n4)C(=O)O)c23)ccc(OCCN2CCN(C)CC2)c1Cl` [Example 236, (2R)-2-{[(5Sa)-5-{3-chloro-2-methyl-4-[2-(4-methylpiperazin-1-yl)ethoxy]phenyl}-6-(furan-2-yl)thieno[2,3-d]pyrimidin-4-yl]oxy}-3-{2-[(6-chloropyridin-2-yl)methoxy]phenyl}propanoic acid], the IC50 in assay [1] (Homo sapiens, NCI-H929, 48 h) was 0.137 µM; on Mcl-1 protein it was 7.4e-09 M.
Take `Cc1c(-c2c(-c3ccco3)sc3ncnc(OC(Cc4ccccc4OCc4cccc(N5CCCC5)n4)C(=O)O)c23)ccc(OCCN2CCN(C)CC2)c1Cl` [Example 237, (2R)-2-{[(5Sa)-5-{3-chloro-2-methyl-4-[2-(4-methylpiperazin-1-yl)ethoxy]phenyl}-6-(furan-2-yl)thieno[2,3-d]pyrimidin-4-yl]oxy}-3-(2-{[6-(pyrrolidin-1-yl)pyridin-2-yl]methoxy}phenyl)propanoic acid]: the IC50 in assay [1] (Homo sapiens, NCI-H929, 48 h) came to 0.186 µM; on Mcl-1 protein, 1.5e-08 M.

Broadly, the IC50 is the concentration at which inhibition is half-maximal.
